According to patent publication US20180028507A1, “3-CARBAMOYLPHENYL-4-CARBOXAMIDE AND ISOPHTALAMIDE DERIVATIVES AS INHIBITORS OF THE WNT SIGNALLING PATHWAY” (Bayer Pharma Aktiengesellschaft, priority 2015, published 2018):

Columns and labels:
[1] = system: constitutive active colorectal cancer cell (CRC) Wnt pathway; assay: HCT116 TOPFlash cellular reporter assay (Super TopFlash vector, luciferase); format: cell-based; conditions: Homo sapiens, HCT-116; HCT116 Super TopFlash reporter cells, 36 hours incubation, dilution series 50 μM to 15 nM, luciferase expression
Experimental: In order to discover and characterize small molecules which inhibit the constitutive active colorectal cancer cell (CRC) Wnt pathway, a cellular reporter assay was employed. The corresponding assay cell was generated by transfection of the colorectal cancer cell line HCT116 (ATCC, #CCL-247) with the Super TopFlash vector (Morin, Science 275, 1997, 1787-1790; Molenaar et al., Cell 86 (3), 1996, 391-399). The HCT116 cell line is cultivated at 37° C. and 5% CO2 in DMEM/F-12 (Life Technologies, #11320-074), supplemented with 2 mM glutamine, 20 mM HEPES, 1.4 mM pyruvate, 0.15% Na-bicarbonate and 10% foetal bovine serum (GIBCO, #10270), this cancer cell line is pathophysiological relevant since it carries a deletion of position S45 in the β-catenin gene, leading to constitutive active Wnt signaling. Stable transfectants were generated by cotransfection with pcDNA3 and selection of stable transfected cells with 1 mg/ml G418.
(§1) In preparation of the assay, the two cell lines were plated 24 hours before at 10000 cells per well of a 384 micro titre plate (MTP) in 30 μL growth medium. Selective inhibitory activity for small molecules on the mutated Wnt pathway was determined after parallel incubation of both (TOP and FOP) HCT116 reporter cell lines with a compound dilution series from 50 μM to 15 nM in steps of 3.16-fold dilutions in CAFTY buffer (130 mM NaCl, 5 mM KCl, 20 mM HEPES, 1 mM MgCl2, 5 mM NaHCO3, pH 7.4) containing 2 mM Ca^2+ and 0.01% BSA. The compounds were thereby serially prediluted in 100% DMSO and thereafter in addition 50 fold into the CAFTY compound dilution buffer (described above). From this dilution 10 μL were added to the cells in 30 μL growth medium and incubated for 36 hours at 37° C. and 5% CO2.

[2] = system: HCT116 cells cotransfected with the FOP control vector (non-functional TCF elements); assay: HCT116 FOPFlash control reporter assay (FOP control vector, luciferase); format: cell-based; conditions: Homo sapiens, HCT-116, 36 hours incubation, dilution series 50 μM to 15 nM, luciferase expression
Experimental: In a parallel approach, HCT116 cells were cotransfected with the FOP control vector and pcDNA3. The FOP vector is identical to the TOP construct, but it contains instead of functional TCF elements a randomized, non-functional sequence. For this transfection a stable transfected cell line was generated as well.
as §1

Compound	IC50 [1] [µM]	IC50 [2] [µM]
Cc1ncccc1NC(=O)c1cc(C(=O)Nc2ccc(-c3ccccc3F)nc2)ccc1OC(F)(F)F [Example 58, N^1-[6-(2-fluorophenyl)pyridin-3-yl]-N^3-(2-methylpyridin-3-yl)-4-(trifluoromethoxy) isophthalamide]	1.9	6.6
Cc1cc(NC(=O)c2cc(C(=O)Nc3ccc(-c4ccccc4F)nc3)ccc2OC(F)(F)F)ccn1 [Example 59, N^1-[6-(2-fluorophenyl)pyridin-3-yl]-N^3-(2-methylpyridin-4-yl)-4-(trifluoromethoxy) isophthalamide]	1.7	5.5
COc1ccc(C(=O)Nc2ccc(-c3ccccc3F)nc2)cc1C(=O)Nc1cccnc1 [Example 60, N^1-[6-(2-fluorophenyl)pyridin-3-yl]-4-methoxy-N^3-(pyridin-3-yl)isophthalamide]	6.05	11
COc1ccc(C(=O)Nc2ccc(-c3ccccc3)cc2)cc1C(=O)NCc1ccc(N)nc1 [Example 61, N^3-[(6-aminopyridin-3-yl)methyl]-N^1-(bipheny-4-yl)-4-methoxyisophthalamide]	34	≥ 50

More lines, now with the values ahead:

IC50 [1] [µM]	IC50 [2] [µM]	Compound
45	≥ 50	COc1ccc(C(=O)Nc2ccc(-c3ccccc3)cc2)cc1C(=O)Nc1cccnc1C [Example 62, N^1-(biphenyl-4-yl)-4-methoxy-N^3-(2-methylpyridin-3-yl)isophthalamide]
26.7	≥ 50	COc1ccc(C(=O)Nc2ccc(-c3ccccc3F)nc2)cc1C(=O)Nc1cncc(C)c1 [Example 63, N^1-[6-(2-fluorophenyl)pyridin-3-yl]-4-methoxy-N^3-(5-methylpyridin-3-yl)isophthalamide]
